Here are results for five compounds from the supplement of paper PMC10307832.

Structures are written as SMILES.

For one experiment, the system named is NCI-H1651. Kind of experiment: relative viability (nuclei count vs DMSO), 5 days (fraction); higher = more cells survive. The following applies: first compound 6.325 µM. A digest of the protocol:
(§1)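 A single step with final 0.05% Triton X-100, 1% formaldehyde and 1 ug/ml Hoechst fixed the cells and stained nuclei 5 days after treatment. Lung cancer cell lines in 1536-well plates had been treated by pin tool the day after seeding with one drug alone or a fixed anchor-drug dose plus five library-drug doses (not always all listed) in √10 steps, and nuclei were counted on 4× images. Relative viability is the ratio of nuclei in treated wells to nuclei in vehicle wells, taken as the median of duplicate plates.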
Consider `COCC1(CO)C(=O)C2CCN1CC2` (stereo unspecified) [PRIMA-1MET] + NC(=O)Nc1cc(-c2cccc(F)c2)sc1C(=O)N[C@H]1CCCNC1 [AZD7762] (partner 0.2 µM), for which the relative viability was determined as 0.513.

In the case of `COCC1(CO)C(=O)C2CCN1CC2` (stereo unspecified) [PRIMA-1MET] + Nc1nc2[nH]cc(CCc3ccc(C(=O)N[C@@H](CCC(=O)O)C(=O)O)cc3)c2c(=O)[nH]1 [Pemetrexed] (partner 0.2 µM), the relative viability was 0.605.

`COCC1(CO)C(=O)C2CCN1CC2` (stereo unspecified) [PRIMA-1MET] + CC(=O)Nc1cccc(-n2c(=O)n(C3CC3)c(=O)c3c(Nc4ccc(I)cc4F)n(C)c(=O)c(C)c32)c1 [Trametinib] (partner 0.02 µM): the relative viability was 0.849.

In turn, `COCC1(CO)C(=O)C2CCN1CC2` (stereo unspecified) [PRIMA-1MET] + Nc1ncn([C@H]2C[C@H](O)[C@@H](CO)O2)c(=O)n1 [Decitabine] (partner 2 µM) returned a relative viability of 0.666.

Still in this experiment, the particulars now being: first compound 20 µM.
In the case of `COCC1(CO)C(=O)C2CCN1CC2` (stereo unspecified) [PRIMA-1MET] + COc1cc2c(Oc3ccc(NC(=O)C4(C(=O)Nc5ccc(F)cc5)CC4)cc3F)ccnc2cc1OCCCN1CCOCC1 [Foretinib] (partner 0.25 µM), the relative viability turned out to be 0.827.

As for `COCC1(CO)C(=O)C2CCN1CC2` (stereo unspecified) [PRIMA-1MET] + NC(=O)Nc1cc(-c2cccc(F)c2)sc1C(=O)N[C@H]1CCCNC1 [AZD7762] (partner 0.2 µM), the relative viability came to 0.592.

For `COCC1(CO)C(=O)C2CCN1CC2` (stereo unspecified) [PRIMA-1MET] + Nc1nc2[nH]cc(CCc3ccc(C(=O)N[C@@H](CCC(=O)O)C(=O)O)cc3)c2c(=O)[nH]1 [Pemetrexed] (partner 0.2 µM), the relative viability came out at 0.651.

As for `COCC1(CO)C(=O)C2CCN1CC2` (stereo unspecified) [PRIMA-1MET] + CC(=O)Nc1cccc(-n2c(=O)n(C3CC3)c(=O)c3c(Nc4ccc(I)cc4F)n(C)c(=O)c(C)c32)c1 [Trametinib] (partner 0.02 µM), the relative viability came to 0.848.

`COCC1(CO)C(=O)C2CCN1CC2` (stereo unspecified) [PRIMA-1MET] + Nc1ncn([C@H]2C[C@H](O)[C@@H](CO)O2)c(=O)n1 [Decitabine] (partner 2 µM) came in with a relative viability of 0.6.

In the next experiment the test system is LCLC-103H. The experiment is described as above. Particulars: first compound 0.2 µM. The essentials: as §1
Consider `COCC1(CO)C(=O)C2CCN1CC2` (stereo unspecified) [PRIMA-1MET] + COc1cc2c(Oc3ccc(NC(=O)C4(C(=O)Nc5ccc(F)cc5)CC4)cc3F)ccnc2cc1OCCCN1CCOCC1 [Foretinib] (partner 0.25 µM), for which the relative viability turned out to be 0.915.

On to `COCC1(CO)C(=O)C2CCN1CC2` (stereo unspecified) [PRIMA-1MET] + NC(=O)Nc1cc(-c2cccc(F)c2)sc1C(=O)N[C@H]1CCCNC1 [AZD7762] (partner 0.2 µM), for which the relative viability came out at 0.889.

`COCC1(CO)C(=O)C2CCN1CC2` (stereo unspecified) [PRIMA-1MET] + Nc1nc2[nH]cc(CCc3ccc(C(=O)N[C@@H](CCC(=O)O)C(=O)O)cc3)c2c(=O)[nH]1 [Pemetrexed] (partner 0.2 µM): the relative viability came out at 0.45.

As for `COCC1(CO)C(=O)C2CCN1CC2` (stereo unspecified) [PRIMA-1MET] + CC(=O)Nc1cccc(-n2c(=O)n(C3CC3)c(=O)c3c(Nc4ccc(I)cc4F)n(C)c(=O)c(C)c32)c1 [Trametinib] (partner 0.02 µM), the relative viability worked out at 0.675.

Turning to `COCC1(CO)C(=O)C2CCN1CC2` (stereo unspecified) [PRIMA-1MET] + Nc1ncn([C@H]2C[C@H](O)[C@@H](CO)O2)c(=O)n1 [Decitabine] (partner 2 µM), the relative viability worked out at 0.757.

Still in this experiment, the particulars now being: first compound 0.6325 µM.
For `COCC1(CO)C(=O)C2CCN1CC2` (stereo unspecified) [PRIMA-1MET] + COc1cc2c(Oc3ccc(NC(=O)C4(C(=O)Nc5ccc(F)cc5)CC4)cc3F)ccnc2cc1OCCCN1CCOCC1 [Foretinib] (partner 0.25 µM), the relative viability came out at 0.718.

In turn, `COCC1(CO)C(=O)C2CCN1CC2` (stereo unspecified) [PRIMA-1MET] + NC(=O)Nc1cc(-c2cccc(F)c2)sc1C(=O)N[C@H]1CCCNC1 [AZD7762] (partner 0.2 µM) gave a relative viability of 0.732.

Turning to `COCC1(CO)C(=O)C2CCN1CC2` (stereo unspecified) [PRIMA-1MET] + Nc1nc2[nH]cc(CCc3ccc(C(=O)N[C@@H](CCC(=O)O)C(=O)O)cc3)c2c(=O)[nH]1 [Pemetrexed] (partner 0.2 µM), the relative viability was 0.503.

The compound `COCC1(CO)C(=O)C2CCN1CC2` (stereo unspecified) [PRIMA-1MET] + CC(=O)Nc1cccc(-n2c(=O)n(C3CC3)c(=O)c3c(Nc4ccc(I)cc4F)n(C)c(=O)c(C)c32)c1 [Trametinib] (partner 0.02 µM) had a relative viability of 0.619.

The compound `COCC1(CO)C(=O)C2CCN1CC2` (stereo unspecified) [PRIMA-1MET] + Nc1ncn([C@H]2C[C@H](O)[C@@H](CO)O2)c(=O)n1 [Decitabine] (partner 2 µM) came in with a relative viability of 0.55.

Still in this experiment, the particulars now being: first compound 2 µM.
In turn, `COCC1(CO)C(=O)C2CCN1CC2` (stereo unspecified) [PRIMA-1MET] + COc1cc2c(Oc3ccc(NC(=O)C4(C(=O)Nc5ccc(F)cc5)CC4)cc3F)ccnc2cc1OCCCN1CCOCC1 [Foretinib] (partner 0.25 µM) showed a relative viability of 0.698.

`COCC1(CO)C(=O)C2CCN1CC2` (stereo unspecified) [PRIMA-1MET] + NC(=O)Nc1cc(-c2cccc(F)c2)sc1C(=O)N[C@H]1CCCNC1 [AZD7762] (partner 0.2 µM): the relative viability came to 0.673.

Consider `COCC1(CO)C(=O)C2CCN1CC2` (stereo unspecified) [PRIMA-1MET] + Nc1nc2[nH]cc(CCc3ccc(C(=O)N[C@@H](CCC(=O)O)C(=O)O)cc3)c2c(=O)[nH]1 [Pemetrexed] (partner 0.2 µM), for which the relative viability is 0.459.

Take `COCC1(CO)C(=O)C2CCN1CC2` (stereo unspecified) [PRIMA-1MET] + CC(=O)Nc1cccc(-n2c(=O)n(C3CC3)c(=O)c3c(Nc4ccc(I)cc4F)n(C)c(=O)c(C)c32)c1 [Trametinib] (partner 0.02 µM): the relative viability turned out to be 0.604.

For `COCC1(CO)C(=O)C2CCN1CC2` (stereo unspecified) [PRIMA-1MET] + Nc1ncn([C@H]2C[C@H](O)[C@@H](CO)O2)c(=O)n1 [Decitabine] (partner 2 µM), the relative viability turned out to be 0.685.

The same experiment, now with this note: first compound 6.325 µM.
`COCC1(CO)C(=O)C2CCN1CC2` (stereo unspecified) [PRIMA-1MET] + COc1cc2c(Oc3ccc(NC(=O)C4(C(=O)Nc5ccc(F)cc5)CC4)cc3F)ccnc2cc1OCCCN1CCOCC1 [Foretinib] (partner 0.25 µM) showed a relative viability of 0.726.

The compound `COCC1(CO)C(=O)C2CCN1CC2` (stereo unspecified) [PRIMA-1MET] + NC(=O)Nc1cc(-c2cccc(F)c2)sc1C(=O)N[C@H]1CCCNC1 [AZD7762] (partner 0.2 µM) gave a relative viability of 0.768.

`COCC1(CO)C(=O)C2CCN1CC2` (stereo unspecified) [PRIMA-1MET] + Nc1nc2[nH]cc(CCc3ccc(C(=O)N[C@@H](CCC(=O)O)C(=O)O)cc3)c2c(=O)[nH]1 [Pemetrexed] (partner 0.2 µM) displayed a relative viability of 0.499.

`COCC1(CO)C(=O)C2CCN1CC2` (stereo unspecified) [PRIMA-1MET] + CC(=O)Nc1cccc(-n2c(=O)n(C3CC3)c(=O)c3c(Nc4ccc(I)cc4F)n(C)c(=O)c(C)c32)c1 [Trametinib] (partner 0.02 µM) showed a relative viability of 0.655.

With `COCC1(CO)C(=O)C2CCN1CC2` (stereo unspecified) [PRIMA-1MET] + Nc1ncn([C@H]2C[C@H](O)[C@@H](CO)O2)c(=O)n1 [Decitabine] (partner 2 µM), the relative viability was found to be 0.78.

The experiment is the same for the next values; noted with them: first compound 20 µM.
Compound `COCC1(CO)C(=O)C2CCN1CC2` (stereo unspecified) [PRIMA-1MET] + COc1cc2c(Oc3ccc(NC(=O)C4(C(=O)Nc5ccc(F)cc5)CC4)cc3F)ccnc2cc1OCCCN1CCOCC1 [Foretinib] (partner 0.25 µM) showed a relative viability of 0.189.

As to `COCC1(CO)C(=O)C2CCN1CC2` (stereo unspecified) [PRIMA-1MET] + NC(=O)Nc1cc(-c2cccc(F)c2)sc1C(=O)N[C@H]1CCCNC1 [AZD7762] (partner 0.2 µM), the relative viability was determined as 0.756.
